Consider four compounds from patent publication US20240270809A1, “ORAL GLP RECEPTOR AGONISTS” (priority 2020, published 2024).

Data set [1] in a line: Stability of peptides in rat intestinal fluid (ratIF). Conditions: Sprague Dawley, undiluted rat small intestinal fluid (ratIF).
Description: Peptides were tested for in vitro stability in native intestinal fluid obtained from the rat small intestine. Rat Sprague Dawley Small Intestinal Fluid (ratIF) (from Biotrend art. no. RSD-SIF-MI-30ML, undiluted) was preincubated for 15 min at 37° C. and spiked with test and reference item working solutions. Experiments were conducted in duplicate in a non-serial manner. The total incubation volume per replicate was 150 μl. […] All samples and calibration standards (prepared in ratIF) were precipitated by addition of 300 μl precipitant (ACN / 2% acetic acid / 0.2% HFBA, (precipitation regent, PR)) containing internal standards (ISTD) to 150 μl sample. After incubation for 1 h at room temperature all samples were centrifuged for 10 min at 2,200×g (room temperature).
The nature of data set [2]: Stability of peptides in Fasted-State Simulated Gastric Fluid (FaSSGF). It counts as in vitro ADME. The note with it: FaSSGF with 0.1 mg/ml pepsin; t=30 mins, 37° C., pH 1.6, 0.1 mg/ml pepsin.
Description: Stability of peptides was tested in Fasted-State Simulated gastric Fluid (FaSSGF) prepared according to manufacturer's protocol (Biorelevant, art. no. FFF01). […] FaSSGF was pre-incubated for 15 min at 37° C. and spiked with test and reference item working solutions. Experiments were conducted in duplicate in a non-serial manner. The total incubation volume per replicate was 150 μl. […] All samples and calibration standards (prepared in FaSSGF) were precipitated by addition of 300 μl precipitant (ACN / 2% acetic acid / 0.2% HFBA, (precipitation regent, PR)) containing internal standards (ISTD) to 150 μl sample. After incubation for 1 h at room temperature all samples were centrifuged for 10 min at 2,200×g (room temperature).
A further data set concerns the target T1, mouse GLP2 receptor (Mus musculus, UniProt Q5IXF8).
T1 construct: expressed in transfected cells; host or cells: HEK cells, transient transfection with GeneJuice
T1 sequence (Q5IXF8 1-512): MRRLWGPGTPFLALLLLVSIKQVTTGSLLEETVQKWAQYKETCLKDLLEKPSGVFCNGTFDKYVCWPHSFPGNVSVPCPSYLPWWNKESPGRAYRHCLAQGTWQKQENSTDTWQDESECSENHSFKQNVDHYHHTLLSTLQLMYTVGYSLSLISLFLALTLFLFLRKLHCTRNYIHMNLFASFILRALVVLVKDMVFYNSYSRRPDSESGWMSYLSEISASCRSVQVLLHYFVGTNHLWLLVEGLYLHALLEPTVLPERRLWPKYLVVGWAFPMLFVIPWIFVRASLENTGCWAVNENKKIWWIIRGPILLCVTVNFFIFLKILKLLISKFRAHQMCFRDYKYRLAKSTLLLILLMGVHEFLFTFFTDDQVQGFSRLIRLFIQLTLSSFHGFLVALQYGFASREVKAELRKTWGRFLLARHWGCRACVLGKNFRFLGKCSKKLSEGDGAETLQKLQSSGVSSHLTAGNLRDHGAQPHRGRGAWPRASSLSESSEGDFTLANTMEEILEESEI
As to the kind of experiment: cAMP accumulation assay, functional agonism of mouse GLP2 receptor. It counts as cell-based. The note with it: HEK cells transiently transfected with mouse GLP2 receptor, HTRF cAMP; for Emax: HEK293, read-out: Mouse GLP-2R agonist cAMP Emax; for EC50: read-out: Mouse GLP-2R agonist cAMP pEC50 (converted). In short, it runs like this:
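Transiently transfected HEK cells (24 h, frozen, 8000/well) in HBSS with 0.5 mM IBMX exposed to compound concentration series for 45 min at 37 °C. cAMP measured by HTRF after lysis and 1 h at RT; pEC50 from four-parameter concentration-response fit.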
On the technique in general: Cyclic AMP is a second messenger, typically raised through Gs and lowered through Gi signalling.

The target of the next data set is T2, human GLP1 receptor (Homo sapiens, UniProt P43220).
T2 construct: expressed in transfected cells; host or cells: HEK cells, BacMam virus transduction
As to the kind of experiment: cAMP accumulation assay, functional agonism of human GLP1 receptor. It counts as cell-based. Conditions: HEK cells infected with human GLP1 receptor BacMam virus, HTRF cAMP; for Emax: HEK293, read-out: Human GLP-1R agonist cAMP Emax; for EC50: read-out: Human GLP-1R agonist cAMP pEC50 (converted). The gist of the method: (§1)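 Frozen HEK cells, previously BacMam-infected 24 h to express either receptor, are stimulated for 45 min at 37° C in IBMX-containing (0.5 mM) HBSS. The reaction is then terminated with HTRF reagents in lysis buffer.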

In the next data set the target is T3, human GLP2 receptor (Homo sapiens, UniProt O95838).
T3 construct: expressed in transfected cells; host or cells: HEK cells, BacMam virus transduction
T3 sequence (O95838 1-553): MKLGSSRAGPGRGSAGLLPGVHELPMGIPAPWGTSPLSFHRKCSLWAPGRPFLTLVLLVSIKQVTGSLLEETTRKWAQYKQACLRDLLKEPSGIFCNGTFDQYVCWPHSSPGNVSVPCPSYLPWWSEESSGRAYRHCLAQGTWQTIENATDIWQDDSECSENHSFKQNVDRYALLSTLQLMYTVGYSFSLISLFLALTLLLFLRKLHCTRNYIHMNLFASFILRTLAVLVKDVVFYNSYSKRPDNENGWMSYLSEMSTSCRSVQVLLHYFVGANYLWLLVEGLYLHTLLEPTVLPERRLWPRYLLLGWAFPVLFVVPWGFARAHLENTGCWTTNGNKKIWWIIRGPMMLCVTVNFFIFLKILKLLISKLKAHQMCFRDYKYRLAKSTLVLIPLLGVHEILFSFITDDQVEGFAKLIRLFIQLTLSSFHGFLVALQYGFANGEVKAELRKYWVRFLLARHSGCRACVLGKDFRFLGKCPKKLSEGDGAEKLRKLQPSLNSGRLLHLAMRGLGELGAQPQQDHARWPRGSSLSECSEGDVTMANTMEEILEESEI
Description: cAMP accumulation assay, functional agonism of human GLP2 receptor. It counts as cell-based. Conditions: HEK cells infected with human GLP2 receptor BacMam virus, HTRF cAMP; for Emax: HEK293, read-out: Human GLP-2R agonist cAMP Emax; for EC50: read-out: Human GLP-2R agonist cAMP pEC50 (converted). In short, it runs like this:
as §1

Data set [3] is described as follows: Stability of peptides in Fasted-State Simulated Intestinal Fluid (FaSSIF). The note with it: FaSSIF with 10 mg/ml pancreatin, 37° C.; for remaining at 0.5 h: t=30 mins, pH 6.5, 10 mg/ml pancreatin. It counts as in vitro ADME.

Positions of bridges follow the written chain, without caps; N, C: chain ends. Non-standard residues stand in square brackets, D forms with d. Residues, ends and D or L forms follow the SMILES beside them. *: point of attachment. Malonyl(2,2-Me2,histaminyl) = CC(C)(C(=O)NCCc1cnc[nH]1)C(=O)*; Ala(1H-tetrazol-5-yl) = N[C@@H](Cc1nnn[nH]1)C(=O)O; αMeL = CC(C)C[C@](C)(N)C(=O)O; Nle = CCCC[C@H](N)C(=O)O; Aib = CC(C)(N)C(=O)O

T2 sequence (P43220 24-463): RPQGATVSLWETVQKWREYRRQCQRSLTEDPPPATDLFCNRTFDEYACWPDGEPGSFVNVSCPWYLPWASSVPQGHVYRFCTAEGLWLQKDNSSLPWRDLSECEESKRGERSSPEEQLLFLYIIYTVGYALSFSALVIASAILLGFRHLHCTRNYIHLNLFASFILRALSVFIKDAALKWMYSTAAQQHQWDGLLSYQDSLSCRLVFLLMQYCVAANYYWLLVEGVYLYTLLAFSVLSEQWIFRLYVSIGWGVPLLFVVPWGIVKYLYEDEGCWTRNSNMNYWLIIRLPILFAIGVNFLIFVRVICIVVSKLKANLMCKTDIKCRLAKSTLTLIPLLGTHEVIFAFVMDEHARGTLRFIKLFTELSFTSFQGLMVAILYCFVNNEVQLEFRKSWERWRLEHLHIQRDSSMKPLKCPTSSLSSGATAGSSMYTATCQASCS

Regarding `CCCC[C@@H]1NC(=O)[C@H](CCC(=O)O)NC(=O)[C@@H](NC(=O)[C@H](CO)NC(=O)[C@H](Cc2ccccc2)NC(=O)[C@H](CO)NC(=O)[C@@H](C)NC(=O)[C@H](Cc2nn[nH]n2)NC(=O)C(C)(C)C(=O)NCCc2c[nH]cn2)CCCCNC(=O)C[C@@H](C(=O)N[C@H](C(=O)N[C@@H](CC(C)C)C(=O)N[C@@H](CC(=O)O)C(=O)N[C@H]2CCC(=O)NCCCC[C@@H](C(=O)N[C@@H](CC(=O)O)C(=O)N[C@@H](Cc3ccccc3)C(=O)N[C@H](C(=O)N[C@H]3CCCCNC(=O)C[C@@H](C(=O)N[C@H](C(=O)N[C@H]4CCC(=O)NCCCC[C@@H](C(N)=O)NC(=O)[C@H]([C@@H](C)O)NC(=O)[C@H]([C@@H](C)CC)NC4=O)[C@@H](C)O)NC(=O)[C@H]([C@@H](C)CC)NC(=O)[C@H](CC(C)C)NC(=O)[C@H](Cc4c[nH]c5ccccc45)NC3=O)[C@@H](C)CC)NC(=O)[C@H](C)NC(=O)[C@H](C)NC(=O)[C@H](CCCCN)NC2=O)[C@@H](C)CC)NC(=O)[C@@H](Cc2ccccc2)NC1=O` [Example 38] ({Malonyl(2,2-Me2,histaminyl)}-[Ala(1H-tetrazol-5-yl)][dA]SFSKE[Nle][dF]DILDEKAAKDFIKWLIDTEITK-NH2; lactam 6-10, 14-18, 22-26, 28-31 (inferred); C-terminus assumed), the values for the fraction remaining at 0.5 h in data set [1], in data set [2] and in data set [3] were 33.4%, 100% and 61.3%, respectively. Moreover, the Emax was 99% at mouse GLP2 receptor, 88.8% at human GLP1 receptor and 105% at human GLP2 receptor. For the same compound, the results for the EC50 on mouse GLP2 receptor, on human GLP1 receptor and on human GLP2 receptor were 3.16 nM, 0.501 nM and 0.0126 nM, respectively.
As to `CCCC[C@H](NC(=O)[C@H](CCC(=O)O)NC(=O)[C@@H]1CC(=O)NCCCC[C@H](NC(=O)[C@H](Cc2nn[nH]n2)NC(=O)C(C)(C)C(=O)NCCc2c[nH]cn2)C(=O)N[C@@H](CO)C(=O)N[C@@H](Cc2ccccc2)C(=O)N[C@@H](CO)C(=O)N1)C(=O)N[C@H](Cc1ccccc1)C(=O)N[C@H](C(=O)N[C@@](C)(CC(C)C)C(=O)N[C@@H](CC(C)C)C(=O)N[C@@H](CC(=O)O)C(=O)N[C@H]1CCC(=O)NCCCC[C@@H](C(=O)N[C@@H](CC(=O)O)C(=O)N[C@@H](Cc2ccccc2)C(=O)N[C@H](C(=O)N[C@H]2CCC(=O)NCCCC[C@@H](C(=O)N[C@H]3CCC(=O)NCCCC[C@@H](C(N)=O)NC(=O)[C@H]([C@@H](C)O)NC(=O)[C@H]([C@@H](C)CC)NC(=O)[C@H](CCCCN)NC3=O)NC(=O)[C@H]([C@@H](C)CC)NC(=O)[C@H](CC(C)C)NC(=O)[C@H](Cc3c[nH]c4ccccc34)NC2=O)[C@@H](C)CC)NC(=O)[C@H](C)NC(=O)[C@H](C)NC(=O)[C@H](CCCCN)NC1=O)[C@@H](C)O` [Example 45] ({Malonyl(2,2-Me2,histaminyl)}-[Ala(1H-tetrazol-5-yl)]KSFSDE[Nle][dF]T[αMeL]LDEKAAKDFIEWLIKEKITK-NH2; lactam 2-6, 14-18, 22-26, 27-31 (inferred); C-terminus assumed), the values for the share remaining at 0.5 h in data set [1], in data set [2] and in data set [3] were 62.4%, 100% and 95.3%, respectively. The figures for the Emax on human GLP1 receptor and on human GLP2 receptor were 96.5% and 104%, respectively. Also, the EC50 on human GLP1 receptor is 0.2 nM; at human GLP2 receptor, 0.0501 nM.
As for `CCCC[C@H](NC(=O)[C@H](CCC(=O)O)NC(=O)[C@@H]1CC(=O)NCCCC[C@H](NC(=O)[C@H](CC(=O)O)NC(=O)C(C)(C)NC(=O)[C@@H](N)Cc2c[nH]cn2)C(=O)N[C@@H](CO)C(=O)N[C@@H](Cc2ccccc2)C(=O)N[C@@H](CO)C(=O)N1)C(=O)N[C@H](Cc1ccccc1)C(=O)N[C@H](C(=O)N[C@@](C)(CC(C)C)C(=O)N[C@@H](CC(C)C)C(=O)N[C@@H](CC(=O)O)C(=O)N[C@H]1CCC(=O)NCCCC[C@@H](C(=O)N[C@@H](CC(=O)O)C(=O)N[C@@H](Cc2ccccc2)C(=O)N[C@H](C(=O)N[C@H]2CCC(=O)NCCCC[C@@H](C(=O)N[C@H]3CCC(=O)NCCCC[C@@H](C(N)=O)NC(=O)[C@H]([C@@H](C)O)NC(=O)[C@H]([C@@H](C)CC)NC(=O)[C@H](CCCCN)NC3=O)NC(=O)[C@H]([C@@H](C)CC)NC(=O)[C@H](CC(C)C)NC(=O)[C@H](Cc3c[nH]c4ccccc34)NC2=O)[C@@H](C)CC)NC(=O)[C@H](C)NC(=O)[C@H](C)NC(=O)[C@H](CCCCN)NC1=O)[C@@H](C)O` [Example 46] (H-H[Aib]DKSFSDE[Nle][dF]T[αMeL]LDEKAAKDFIEWLIKEKITK-NH2; lactam 4-8, 16-20, 24-28, 29-33 (inferred); C-terminus assumed), the amount remaining at 0.5 h in data set [2] is 100%; in data set [3], 95.3%. Further, the Emax amounted to 101% on mouse GLP2 receptor, 97.8% on human GLP1 receptor and 105% on human GLP2 receptor. The EC50 is 10 nM at mouse GLP2 receptor, 0.126 nM on human GLP1 receptor and 0.0251 nM at human GLP2 receptor.
For the compound `CC[C@H](C)[C@H](NC(=O)[C@H](Cc1ccccc1)NC(=O)[C@H](CC(=O)O)NC(=O)[C@H](CCCNC(=N)N)NC(=O)[C@H](C)NC(=O)[C@H](C)NC(=O)[C@H](CC(C)C)NC(=O)[C@H](CC(N)=O)NC(=O)[C@H](CC(=O)O)NC(=O)[C@H](CC(C)C)NC(=O)[C@@H](NC(=O)[C@@H](NC(=O)[C@H](CC(N)=O)NC(=O)[C@H](CCSC)NC(=O)[C@H](CCC(=O)O)NC(=O)[C@H](CC(=O)O)NC(=O)[C@H](CO)NC(=O)[C@H](Cc1ccccc1)NC(=O)[C@H](CO)NC(=O)CNC(=O)[C@H](CC(=O)O)NC(=O)CNC(=O)[C@@H](N)Cc1c[nH]cn1)[C@@H](C)O)[C@@H](C)CC)C(=O)N[C@@H](CC(N)=O)C(=O)N[C@@H](Cc1c[nH]c2ccccc12)C(=O)N[C@@H](CC(C)C)C(=O)N[C@H](C(=O)N[C@@H](CCC(N)=O)C(=O)N[C@H](C(=O)N[C@@H](CCCCN)C(=O)N[C@H](C(=O)N[C@H](C(=O)N[C@@H](CC(=O)O)C(=O)O)[C@@H](C)O)[C@@H](C)CC)[C@@H](C)O)[C@@H](C)CC` [Teduglutide, reference compound], the share remaining at 0.25 h in data set [1] was 5.7%; in data set [3] (FaSSIF pH 6.5 with 10 mg/ml pancreatin, t = 15 mins) it was 1.2%. In addition, the share remaining at 0.5 h in data set [1] is 1.3%; in data set [2], 9.2%; in data set [3] it was 1.7%.

The term fraction remaining denotes what is left of the initial amount, in per cent. For orientation: Emax means the size of the effect at its maximum, as opposed to the concentration needed.
